In paper PMC8512368, “Alpha-Glucosidase Inhibitory Assay-Screened Isolation and Molecular Docking Model from Bauhinia pulla Active Compounds” (Molecules, 2021):
Read-outs that look alike come from different tables or passages of the source.

Molecular target: T1, alpha-glucosidase enzyme from Saccharomyces cerevisiae (EC 3.2.1.20) (Saccharomyces cerevisiae, UniProt P53341)
T1 construct: purchased Sigma-Aldrich
Test: biochemical
Format: biochemical
Experimental: Briefly, the enzyme from Saccharomyces cerevisiae (EC 3.2.1.20) and the pNPG substrate were dissolved in 0.1 M phosphate buffer (pH 7), which was enriched by bovine serum albumin and sodium azide. Standards and samples were suspended in 20% (v/v) of DMSO in a water solution. In a 96-well plate, 50 µl of PBS, standards, samples and enzyme solutions were mixed and incubated for 2 min at 37 °C. At last, 50 µl of 4 mM pNPG was added and incubated for 5 min before the kinetic parameter measurement, as described earlier.
The velocity was examined by a linear relationship equation between absorbance and time, Equation (1).
The percent inhibition was determined for the highest velocity as:% Inhibition = (V control − V sample)/(V control) × 100(2)
The IC50 value was calculated by using a calibration curve equation between samples at five different concentrations and inhibition percentages.

[1] = isolated compounds (Table 2), read-out: IC50 (converted)

T1 sequence (P53341 whole entry): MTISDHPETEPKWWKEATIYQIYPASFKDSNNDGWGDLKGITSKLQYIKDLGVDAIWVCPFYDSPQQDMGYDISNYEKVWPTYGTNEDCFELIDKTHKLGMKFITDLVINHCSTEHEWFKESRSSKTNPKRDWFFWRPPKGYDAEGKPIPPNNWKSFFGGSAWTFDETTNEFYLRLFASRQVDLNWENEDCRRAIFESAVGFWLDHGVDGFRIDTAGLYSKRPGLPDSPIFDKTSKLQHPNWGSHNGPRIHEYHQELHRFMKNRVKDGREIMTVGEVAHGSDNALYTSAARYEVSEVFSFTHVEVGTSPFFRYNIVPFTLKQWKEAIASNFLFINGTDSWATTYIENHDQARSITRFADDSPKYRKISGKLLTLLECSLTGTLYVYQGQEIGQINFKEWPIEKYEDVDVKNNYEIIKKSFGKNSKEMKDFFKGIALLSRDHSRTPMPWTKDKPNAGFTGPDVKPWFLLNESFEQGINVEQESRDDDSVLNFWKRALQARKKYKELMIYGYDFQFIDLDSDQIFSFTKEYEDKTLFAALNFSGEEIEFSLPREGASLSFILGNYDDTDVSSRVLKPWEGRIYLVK

| Compound | IC50 [µM] | inhibitory activity drop compared with quercetin (sugar moiety added) (ratio of IC50 values) | IC50 [1] [µM] | IC50 fold higher compared to luteolin (ratio of IC50 values) [fold] |
| --- | --- | --- | --- | --- |
| C[C@@H]1O[C@@H](Oc2c(-c3ccc(O)c(O)c3)oc3cc(O)cc(O)c3c2=O)[C@H](O)[C@H](O)[C@H]1O [Quercitrin, quercitrin] | 111 | roughly 10 fold |  |  |
| COc1ccc(/C=C/C(=O)c2ccc(O)cc2O)cc1 [4-methyl ether isoliquiritigenin] |  |  | 814 |  |
| COc1ccc(/C=C/C(=O)c2ccc(O)cc2O)cc1O [3,2’ ,4’-trihydroxy-4-methoxychalcone, 3,2’,4’-trihydroxy-4-methoxychalcone] |  |  | 4450 |  |
| O=c1cc(-c2ccc(O)c(O)c2)oc2cc(O)cc(O)c12 [Luteolin, luteolin] |  |  | 573 |  |
| O=c1cc(-c2ccc(O)c(O)c2)oc2cc(O)ccc12 [5-deoxyluteolin] |  |  | 2130 | 3.5 |
